Laboratory results: publication PMC11880180, “Theranostic Near-Infrared Monoamine Oxidase Inhibitor (NMI) Protein Binding Interactions with MAOA and Albumin” (Pharmaceutical Research, 2025)

Target: T1, MAOA (monoamine oxidase A) (Homo sapiens, UniProt P21397)
T1 construct: recombinant human MAOA (M7316-1VL)
T1 sequence (P21397 1-527): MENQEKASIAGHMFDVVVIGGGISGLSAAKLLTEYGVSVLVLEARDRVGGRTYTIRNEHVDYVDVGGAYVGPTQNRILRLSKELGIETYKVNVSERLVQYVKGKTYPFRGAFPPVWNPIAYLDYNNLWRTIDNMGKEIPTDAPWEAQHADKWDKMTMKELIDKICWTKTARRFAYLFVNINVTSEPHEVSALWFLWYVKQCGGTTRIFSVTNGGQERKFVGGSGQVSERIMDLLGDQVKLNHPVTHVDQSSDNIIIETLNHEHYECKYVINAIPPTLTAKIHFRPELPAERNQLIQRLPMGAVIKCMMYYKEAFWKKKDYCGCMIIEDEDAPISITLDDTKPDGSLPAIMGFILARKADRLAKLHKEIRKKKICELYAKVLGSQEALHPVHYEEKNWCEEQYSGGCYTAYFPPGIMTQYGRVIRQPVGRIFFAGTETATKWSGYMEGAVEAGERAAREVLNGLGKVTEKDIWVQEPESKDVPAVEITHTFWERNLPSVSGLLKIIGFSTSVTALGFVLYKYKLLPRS
Assay: MAO-Glo activity assay with recombinant MAOA (IC50 […] in PEG, […] in PBS); fluorescent SDS-PAGE band of pure protein
Format: biochemical

`C#CCN(CCCNC(=O)CCCCC[N+]1=C(/C=C/C2=C(Cl)C(=C/C=C3\N(CCCCCC(=O)[O-])c4ccccc4C3(C)C)/CCC2)C(C)(C)c2ccccc21)CCCOc1ccc(Cl)cc1Cl` [NMI] showed an IC50 of 1600 nM.
